Consider 66 compounds from a melting point compilation (Tetko et al.; mined from patent text by program, amines drawn as free bases though some values may be those of a salt).

One may read the melting point as the temperature, or range, at which the solid turns liquid. With `OCc1ccccc1OCc1ncc2ccccc2n1`, the melting point lay in the range of 92 to 96 °C.
As to `CC1(C)CC(=C(c2ccc(O)cc2)c2ccc(S(C)(=O)=O)cc2)CC(C)(C)C1`, the melting point was 149 to 150 °C.
Consider `CCCC1CCC(C2CCc3c(c(F)c(F)c4cc(OCC)ccc34)O2)CC1` (stereo unspecified), for which the melting point was determined as 158 °C.
As to `CCOC(=O)/C=C/c1cn(C)c2ccccc12`, the melting point fell in the range of 94 to 98 °C.
Regarding `O=C(C=Cc1ccc(F)cc1)N1CCOCC1`, the melting point fell in the range of 136 to 137 °C.
`CC(C)(C)c1cc(Sc2nnc(NC(=N)N)s2)cc(C(C)(C)C)c1O` displayed a melting point of 248 to 249 °C.
In the case of `CCOC(=O)Cc1ccc(-c2nc(COc3ccc(COc4nn(-c5ccccc5)cc4/C=C\c4csc(C(C)C)n4)cc3OC)c(C)o2)cc1` it was 89 to 90 °C; in that of `N#Cc1cc(Br)ccc1CBr`, 81 °C.
`CN(C)c1ncc(-c2nc3cccc(CO)c3o2)cn1` displayed a melting point of 212 to 215 °C.
Regarding `O=c1[nH]c(N2CCN(CCO)CC2)cc2c(F)cccc12`, the melting point is 207 to 208 °C.
Consider `C=C1c2cc(F)ccc2OC12CCN(C(C)=O)CC2`, for which the melting point was 114 to 116 °C.
Regarding `COc1cc(Oc2cccc3c2NC(=O)C3)cc(OC)c1OC`, the melting point fell in the range of 170 to 171 °C.
Under `N#Cc1ccc(Cl)cc1OCC(O)CNc1ccccc1OC1CC=NNC1=O` (stereo unspecified) stands 156 to 158 °C; under `O=CN1CCC(=C2c3ccc(Cl)cc3CCc3cccnc32)CC1`, 147 to 149 °C; under `CCOC(=O)c1cn(-c2ncc(F)c(NC(C)(C)C)n2)c2c(Cl)c(F)c(F)cc2c1=O`, 201 to 205 °C.
In the case of `CC(=O)Nc1ccccc1-c1ccn[nH]c1=O` it was 235 to 236 °C; in that of `CNC(=S)C1=C(O)C(COC)(COC)Oc2ccc([N+](=O)[O-])cc21`, 97 to 101 °C.
As for `Cc1ccc(NC2CCOC2=O)c(C(=O)O)c1` (stereo unspecified), the melting point was 199 to 200 °C.
Turning to `CCc1cnc2c(NC(=O)c3c(Cl)cccc3Cl)cccc2c1CC(C)(C)O`, the melting point lay within 203 to 204 °C.
`O=C(O)CCCc1ccc(-c2ccc(Cl)cc2)cc1` gave a melting point of 187 to 190 °C.
As to `CC(C)n1nc(-c2c(-c3ccccc3)nn3ccc(N4CCNCC4)cc23)ccc1=O`, the melting point is 203 to 204 °C.
In the case of `CC(C)c1ccc(OCC(=O)N2C(=O)OC[C@H]2Cc2ccccc2)cc1` it was 104 to 105 °C; in that of `O=C(Nc1ccc(I)cc1Cl)C(F)(F)F`, 51 to 52 °C; in that of `CCCc1c(OCCCOc2ccccc2)ccc2c1OC(CCC(=O)O)(CCC(=O)O)CC2O` (stereo unspecified), 132 °C.
For the compound `CCN(C)c1nn(C)c2ncc(-c3ccncc3)cc12`, the melting point lay in the range of 182 to 197 °C.
Regarding `CC(C)(C)OC(=O)CCNC(=O)c1ccc2c(Cl)cnc(Cl)c2c1`, the melting point was in the range of 131 to 133 °C.
Under `Cc1nc(-c2ccc(C(F)(F)F)cc2)sc1COc1ccc(CC(=O)O)cc1` stands 149 to 150 °C; under `O=C(O)Cc1ccc2ncsc2c1`, 147 to 149 °C; under `O=C(CCCCCNC(=O)C/C=C/c1ccccc1)NO`, 127 to 128 °C.
The compound `COc1ccc(S(=O)(=O)C(c2cnc(C(=O)NCCO)cc2C)c2cc(F)ccc2F)cc1F` (stereo unspecified) registered a melting point of 137 to 138 °C.
Regarding `CS(=O)(=O)c1ccc(/C=C2/C(=O)CCc3ccccc32)cc1`, the melting point is 152 to 153 °C.
In the case of `CCOC(=O)C1=C(NC(C)=O)C(=O)O[C@@H]1C` it was 119 to 122 °C; in that of `CC1(C)OC[C@H]([C@@H]2CNC(=O)C2)O1`, 84 to 86 °C; in that of `CC1(C)CC(=O)C(c2ccc(N)cc2Cl)C(=O)C1`, 218 to 219 °C.
Turning to `Cc1ccc(S(=O)(=O)n2ccc3c2CC(c2ccccc2)CC3=O)cc1` (stereo unspecified), the melting point lay within 118 to 120 °C.
`CCCc1c(SCCCOc2ccc3c(=O)cc(C(=O)O)oc3c2CCC)ccc(C(C)=O)c1N` gave a melting point of 202 to 204 °C.
Turning to `O=C(c1ccco1)c1cnn2c1NCCC2`, the melting point was 138 to 139 °C.
Take `CN1CCN(c2ccccc2C=C2CCN(c3ccccc3)C2=O)CC1`: the melting point lay within 104 to 106 °C.
`COc1cccc(C(CCN2CCN(Cc3cccc(F)c3)CC2)C2(O)CCCCC2)c1` (stereo unspecified): the melting point lay in the range of 131 to 133 °C.
Compound `O=C(Oc1ccccc1)C1CCCc2ccc([N+](=O)[O-])cc21` (stereo unspecified) returned a melting point of 83 to 84 °C.
Take `COc1ccc2c(c1)c1c(n2Cc2ccccc2)CCCC1=O`: the melting point lay in the range of 174 to 175 °C.
`OC(c1ccc2c(c1)CCCN2)(C(F)(F)F)C(F)(F)F` returned a melting point of 115 to 116 °C.
The compound `NC(=S)Nc1cc(Cl)ccc1N1CCOCC1` came in with a melting point of 174 to 175 °C.
As for `COc1cc2c(cc1OC)C(=O)NC(=O)C2`, the melting point lay within 234 to 238 °C.
Under `CCn1c(=O)c2c(nc(/C=C/c3cc(OC)c4c(c3)OCO4)n2C)n(CC)c1=O` stands 202 °C; under `Cn1ncc(CO)c1-c1ccc(Cl)cc1C(O)c1ccccc1F` (stereo unspecified), 152 to 155 °C.
On to `CC[C@@H]1N(c2ccc(C#N)c(Cl)c2)C(=O)C[C@@]1(O)C1CC1`, for which the melting point lay in the range of 128 to 132 °C.
With `CC(=O)OCCN1C(=O)CN2CCOC2(c2ccccc2F)c2cc(Cl)ccc21` (stereo unspecified), the melting point fell in the range of 120 to 123 °C.
Take `O=[N+]([O-])c1cnn(C2CC2)c1`: the melting point is 44 to 45 °C.
`Cc1cc(C)c(S(=O)(=O)NC(COc2ccnc3ccccc23)C(F)(F)F)c(C)c1` (stereo unspecified) displayed a melting point of 211 to 212 °C.
Compound `COc1ccc2c(c1OC(C)=O)NC(O)C1CCCN1C2=O` (stereo unspecified) had a melting point of 144 to 146 °C.
`COc1ccc(CNc2n[nH]cc2C(=O)O)cc1OC1CCCC1` registered a melting point of 134 to 136 °C.
Under `C=C(C)COc1c(C)c(CCC=O)c2c(c1C)CC(C)(C)O2` stands 55.5 to 56 °C; under `N#CCN1CCc2oc3ccccc3c2C1`, 78 °C; under `COc1ccc(F)c(F)c1C=NO`, 199 to 201 °C.
As to `N=C(N)c1cccc(Oc2cc(C(N)=O)cc(Oc3cccc(C(=N)N)c3)n2)c1`, the melting point was greater than 210 °C.
The compound `COc1ccc([C@H](Sc2ccccc2N)[C@@H](O)C(N)=O)cc1` gave a melting point of 110 to 112 °C.
In the case of `Cc1cccc(-c2[nH]c(C(C)C)nc2-c2ccc(F)c(-c3c[nH]nn3)c2)n1`, the melting point was 233 to 235 °C.
Under `COC(=O)C1=C(C)NC(CC(=O)N2CCN(C3CC4CCC(C3)N4C(=O)OC(C)Cl)CC2)=C(C(=O)OC)C1c1c(Cl)cccc1Cl` (stereo unspecified) stands 135 to 145 °C; under `CC12CCC(=O)C=C1CCC1C2=CCC2(C)C1CCC2(O)C(=O)CCl` (stereo unspecified), 227 to 228 °C; under `O=c1c(O)c(-c2ccc[nH]2)oc2ccccc12`, 201 to 203 °C.
Regarding `Cc1cc(Cc2ccsc2)c(NC(=O)OCc2ccccc2)c(=O)n1CC(=O)O`, the melting point was in the range of 153 to 155 °C.
With `Clc1ccc(CCC(Cn2ccnc2)Sc2ccccc2Cl)s1` (stereo unspecified), the melting point was 121 to 122 °C.
`COC(=O)C(Cc1ccc(OC)c(OC)c1)NNc1ccc(C)c(C)c1` (stereo unspecified) yielded a melting point of 148 to 150 °C.
Compound `CC(C)(C)c1ccc(Cn2[nH]c(N)cc2=O)cc1` yielded a melting point of 126 °C.
In the case of `C[C@@H]1Cc2ccsc2[C@H](C)N1CCNC(=O)c1ccccn1` (relative stereo) it was 116 to 120 °C.
